These results are taken from patent publication US9415047B2, “Use of benzo five-membered nitrogen heterocyclic piperazine or piperidine derivatives” (Liaoning Emmy Biological Pharmaceutical Co., Ltd., priority 2012, dated 2016).

Each structure is given as a SMILES string.

Test [1] has as its system AD constricted rabbit aorta. As to the kind of experiment: Relaxing effects on vascular smooth muscle constricted by adrenaline hydrochloride (AD) in vitro. The following applies: relaxation of rabbit aorta constricted by adrenaline (10^−5 mol/L), mean±SEM, n=5; for EC50: Oryctolagus cuniculus. On the procedure:
(§1) Adrenaline hydrochloride (AD) (10^−5 mol/L) was added into a bath tube to induce constriction, when maximal constriction was achieved, the sample was completely flushed, K-H solution was changed for every 20 min. Contents in the tube was balanced for 60 min, when baseline recovered to be stable, the convulsant was added at the same concentration to induce constriction. When the later maximal constriction response was basically consistent with the former one, the prepared compound solutions were subsequently added, including compound II-1 to II-60 solutions (1×10^−8-1×10^−3 mol/L), compound II-84 to II-123 solutions (1×10^−10-1×10^−2 mol/L) and compound II-124 to II-157 solutions (1×10^−10˜1×10^−3 mol/L), to record the waveforms. Relaxing percentage of the compound was used as Y axis, maximal relaxation response was 100%, negative logarithm of different concentration was used as X axis, to draw dose effect curve (expressed in mean±SEM ( ? ), n=5). Compounds II-2 and II-3 had the most obvious relaxing effects (FIG. 1 and FIG. 8).

For test [2], the system named is NA constricted rabbit aorta. As to the kind of experiment: Relaxing effects on vascular smooth muscle constricted by noradrenaline (NA) in vitro. The following applies: relaxation of rabbit aorta constricted by noradrenaline (10^−5 mol/L), mean±SEM, n=5; for EC50: Oryctolagus cuniculus. On the procedure: as §1, with “noradrenaline bitartrate (NA) (10^−5 mol/L)” for “the convulsant”, “added” for “added at the same concentration”, “compound” for “compound II-1 to II-60 solutions (1×10^−8-1×10^−3 mol/L), compound”, “mol/L),” for “mol/L) and”, “(1×10^−10-1×10^−3” for “(1×10^−10˜1×10^−3”, “n=5).” for “n=5). Compounds II-2 and II-3 had the most obvious relaxing effects (FIG. 1 and FIG. 8).”

In test [1], `FC(F)(F)c1cccc(C2CCN(CCCCn3cnc4ccccc43)CC2)c1` [II-126, N-(4-(1H-benzimidazoyl-1-yl)butyl)-4-(3-trifluoromethylphenyl)piperidine] showed an EC50 of 0.617 µM. For the same compound, the “−logEC50” value in test [2] was 6.32 ± 0.04.

In test [1], `FC(F)(F)c1cccc(C2CCN(CCCCn3nnc4ccccc43)CC2)c1` [II-127, N-(4-(1H-benzotriazole-1-yl)butyl)-4-(3-trifluoromethylphenyl)piperidine] gave an EC50 of 0.437 µM. Moreover, the “−logEC50” value in test [2] is 6.45 ± 0.03.

In turn, `Fc1cccc(C2CCN(CCCCn3cnc4ccccc43)CC2)c1` [II-128, N-(4-(1H-benzimidazoyl-1-yl)butyl)-4-(3-fluorophenyl)piperidine] had a concentration for a half-maximal effect (EC50) in test [1] of 12.9 µM. Besides, the “−logEC50” value in test [2] was 4.67 ± 0.02.

For `COc1ccccc1C1CCN(CCCCn2cnc3ccccc32)CC1` [II-129, N-(4-(1H-benzimidazoyl-1-yl)butyl)-4-(2-methoxylphenyl)piperidine], in test [1], the response was half-maximal at 17.4 µM (EC50). In addition, the “−logEC50” value in test [2] came out at 4.55 ± 0.03.

Take `Fc1ccc2nnn(CCCCN3CCC(c4cccc(C(F)(F)F)c4)CC3)c2c1` [II-130, N-(4-(6-fluoro-1H-benzotriazole-1-yl)butyl)-4-(3-trifluoromethylphenyl)piperidine]: the concentration for a half-maximal effect (EC50) in test [1] was 4.9 µM. In addition, the “−logEC50” value in test [2] is given as 5.21 ± 0.04.

With `COc1ccc2nnn(CCCCN3CCC(c4cccc(C(F)(F)F)c4)CC3)c2c1` [II-131, N-(4-(6-methoxyl-1H-benzotriazole-1-yl)butyl)-4-(3-trifluoromethylphenyl)piperidine], the EC50 in test [1] was 13.8 µM. Besides, in test [2], the “−logEC50” value was determined as 4.77 ± 0.03.

Regarding `N#Cc1ccc2nnn(CCCCN3CCC(c4cccc(C(F)(F)F)c4)CC3)c2c1` [II-132, N-(4-(6-cyano-1H-benzotriazole-1-yl)butyl)-4-(3-trifluoromethylphenyl)piperidine], in test [1], the EC50 is 16.2 µM. Moreover, the “−logEC50” value in test [2] stood at 4.53 ± 0.02.

The compound `FC(F)(F)c1cccc(C2CCN(CCCOn3nnc4ccccc43)CC2)c1` [II-133, N-(4-(1H-benzotriazole-1-yl)propoxyl)-4-(3-trifluoromethylphenyl)piperidine] gave a half-maximal effective concentration (EC50) in test [1] of 2.75 µM. Moreover, in test [2], the “−logEC50” value worked out at 5.36 ± 0.05.

`FC(F)(F)c1cccc(C2CCN(CCCOn3cnc4ccccc43)CC2)c1` [II-134, N-(4-(1H-benzimidazole-1-yl)propoxyl)-4-(3-trifluoromethylphenyl)piperidine] gave an EC50 in test [1] of 4.9 µM. Also, the “−logEC50” value in test [2] was found to be 5.15 ± 0.06.

On to `Cc1ccc2c(C3CCN(CCCn4nnc5ccccc54)CC3)noc2c1` [II-135, N-(3-(1H-benzotriazole-1-yl)propyl)-4-(3-(6-methylbenzisoxazolyl))piperidine], for which the EC50 was 3.55 µM in test [1] and 5.5 µM in test [2].

With `COc1ccc2c(C3CCN(CCCn4nnc5ccccc54)CC3)noc2c1` [II-136, N-(3-(1H-benzotriazole-1-yl)propyl)-4-(3-(6-methoxylbenzisoxazolyl))piperidine], the half-maximal effective concentration (EC50) is 4.57 µM in test [1] and 9.12 µM in test [2].

`Fc1ccc2c(C3CCN(CCCn4nnc5ccc(F)cc54)CC3)noc2c1` [II-137, N-(3-(6-fluoro-1H-benzotriazole-1-yl)propyl)-4-(3-(6-fluorobenzisoxazolyl))piperidine]: the EC50 in test [1] is 2.45 µM; in test [2], 1.86 µM.

For `Fc1ccc2c(C3CCN(CCCn4nnc5ccc(Cl)cc54)CC3)noc2c1` [II-138, N-(3-(6-chloro-1H-benzotriazole-1-yl)propyl)-4-(3-(6-fluorobenzisoxazolyl))piperidine], the results for the concentration for a half-maximal effect (EC50) in test [1] and in test [2] were 3.8 µM and 6.03 µM, respectively.

As for `Cc1ccc2nnn(CCCN3CCC(c4noc5cc(F)ccc45)CC3)c2c1` [II-139, N-(3-(6-methyl-1H-benzotriazole-1-yl)propyl)-4-(3-(6-fluorobenzisoxazolyl))piperidine], the EC50 in test [1] is 4.17 µM. In addition, in test [2], the “−logEC50” value worked out at 5.35 ± 0.03.

Consider `O=Cc1ccc2nnn(CCCN3CCC(c4noc5cc(F)ccc45)CC3)c2c1` [II-141, N-(3-(6-formoxyl-1H-benzotriazole-1-yl)propyl)-4-(3-(6-fluorobenzisoxazolyl))piperidine], for which, in test [1], the midpoint of the response, the EC50, lay at 2.75 µM. The “−logEC50” value in test [2] is 5.73 ± 0.04.

In test [1], `COc1ccc2nnn(CCCN3CCC(c4noc5ccccc45)CC3)c2c1` [II-142, N-(3-(6-methoxylbenzotriazolyl)propyl)-4-(3-benzisoxazolyl)piperidine] gave a concentration giving a half-maximal response (EC50) of 0.776 µM. Besides, the “−logEC50” value in test [2] is on record as 6.07 ± 0.04.

Compound `COc1ccc2c(C3CCN(CCCCn4nnc5ccc(C#N)cc54)CC3)noc2c1` [II-146, N-(4-(6-cyanobenzotriazolyl)butyl)-4-(3-(6-methoxylbenzisoxazolyl))piperidine] showed an EC50 in test [1] of 5.89 µM. The “−logEC50” value in test [2] was 5.09 ± 0.04.

Take `c1coc(C2CCN(CCCCn3cnc4ccccc43)CC2)c1` [II-152, N-(4-(1H-benzimidazoyl-1-yl)butyl)-4-(2-furyl)piperidine]: the EC50 in test [1] is 37.2 µM. Also, the “−logEC50” value in test [2] amounted to 4.23 ± 0.03.

In test [1], `c1ccc2c(c1)ncn2CCCCN1CCC(c2ccncc2)CC1` [II-153, N-(4-(1H-benzimidazoyl-1-yl)butyl)-4-(4-pyridyl)piperidine] showed a concentration for a half-maximal effect (EC50) of 13.8 µM. Also, in test [2], the “−logEC50” value is on record as 4.66 ± 0.02.

`c1cnc(C2CCN(CCCCn3cnc4ccccc43)CC2)nc1` [II-154, N-(4-(1H-benzimidazoyl-1-yl)butyl)-4-(2-pyrimidinyl)piperidine]: the “−logEC50” value was 4.72 ± 0.03 in test [1] and 4.52 ± 0.04 in test [2].

With `c1ccc2c(c1)nnn2CCCCN1CCC(C2CCCCC2)CC1` [II-155, N-(4-(1H-benzotriazole-1-yl)butyl)-4-cyclohexyl piperidine], the “−logEC50” value in test [1] is reported as 4.39 ± 0.05; in test [2] it was 4.44 ± 0.05.

With `c1ccc2c(C3CCN(CCCCn4nnc5ccccc54)CC3)cccc2c1` [II-156, N-(4-(1H-benzotriazole-1-yl)butyl)-4-(1-naphthyl)piperidine], the figures for the “−logEC50” value in test [1] and in test [2] were 4.22 ± 0.06 and 4.34 ± 0.04, respectively.

On to `c1ccc2nc(C3CCN(CCCCn4nnc5ccccc54)CC3)cnc2c1` [II-157, N-(4-(1H-benzotriazole-1-yl)butyl)-4-(2-quinoxalinyl)piperidine], for which the “−logEC50” value in test [1] is given as 4.83 ± 0.05; in test [2] it was 4.53 ± 0.05.

For orientation: EC50 means the concentration that produces a half-maximal response. A higher EC50 goes with weaker potency.
